Columns and labels:
[1] = system: Methylococcus capsulatus (Texas, ATCC 19,069); assay: Oxidation by cell suspensions of methane-grown cells; format: cell-based; conditions: growth substrate Methane; n-alkane to secondary alcohol
Description: (§1) The pH of the nutrient medium was adjusted to 7.0 by the addition of acid or base and 50 ml samples of the nutrient medium were charged into a plurality of 300 ml shaker flasks. The shaker flasks were inoculated with an inoculating loop of cells from an agar plate containing homogeneous colonies of the microorganisms on the plate (the purity of the isolates was confirmed by microscopic examination. The isolates had been maintained on agar plates under an atmosphere of methane and air having a 1:1 v/v gas ratio which had been transferred evey two weeks. The gaseous phase of the inoculated flasks was then replaced with a gas mixture comprised of methane and air having a ratio of 1:1 on a v/v basis. The inoculated flasks were sealed air tight and were incubated on a rotary shaker of orbital radius 2.5 cm at 250 rpm and at 30° C. for two days until turbidity in the medium had developed.
(§2) The cells were harvested by centrifugation at 10,000×g. at 4° C. for 30 minutes. The cell pellet was washed twice with a 0.15 M phosphate buffer at a pH of 7.0 (containing 0.002 M MgCl2). The washed cells were then suspended in a 0.15 M phosphate buffer at pH 7.0.
(§3) A 0.5 ml sample of each washed cell suspension (2 mg cells) was put into 10 ml vials at 4° C. which were sealed with a rubber cap. The gaseous phase of the vials was removed with vacuum and then was replaced with a gas mixture of the oxidative substrate (e.g., methane) and oxygen at a 1:1 v/v ratio. The vials were then incubated at 30 ° C. on a rotary shaker at 300 rpm. Samples of product (3 μl) were withdrawn periodically with a microsyringe and the products were analyzed by gas chromatography (ionization flame detector column).
(§4) The conditions for preparing the cell suspensions or the cell-free particulate fractions from methane-grown methylotroph microorganisms is the same as described above.

[2] = system: Methylosinus trichosporium OB3b (NRRL B-11,196); assay: as above; format: cell-based; conditions: growth substrate Methane; n-alkane to secondary alcohol
Description: as §1, §2, §3, §4

[3] = system: Methylobacter capsulatus (Y, NRRL-B-11,201); assay: as above; format: cell-based; conditions: growth substrate Methane; n-alkane to secondary alcohol
Description: as §1, §2, §3, §4

[4] = system: Methylomonas methanica (CRL 21 PM7) NRRL B-11,206; assay: Oxidation by washed cell suspensions of methane-grown cells; format: cell-based
In short: (§5)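 Products were quantified by gas chromatography (flame ionization) in headspace/liquid samples taken periodically from sealed vials. Each vial held 2 mg washed methane-grown cells in 0.15 M phosphate pH 7.0 under a 1:1 substrate/oxygen gas phase, shaken at 30 °C.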

[5] = system: cell fractions of Methylosinus trichosporium (OB3b, NRRL B-11,196); format: biochemical; conditions: S(80); propylene to propylene oxide, methane to methanol; 30° C.
Description: Cells were washed twice with 25 mM potassium phosphate buffer, pH 7.0 containing 5 mM MgCl2. Cells were suspended in the same buffer. The cell suspensions at 4° C. were disintegrated by a single passage through a French Pressure cell (15,000 lb./in.^2) and centrifuged at 5000×g. for 15 min. to remove unbroken bacteria. The supernatant solution (crude extract) was then centrifuged at 40,000×g. for 30 min., yielding particulate P(40) and soluble S(40) fractions. The S(40) fraction was subsequently centrifuged at 80,000×g. for 60 min., yielding particulate P(80) and soluble S(80) fractions. The particulate fractions [P(40) and P(80)] were suspended in 25 mM potassium phosphate buffer, pH 7.0, containing 5 mM MgCl2 and homogenized at 4° C.
The oxidation of methane and propylene by particulate [(P)40 and (P)80] fractions and soluble [S(80)] fraction was measured at 30° C. by estimating the production of methanol and propylene oxide, respectively. The reaction mixtures contained in […]: 150 mM potassium phosphate buffer, pH 7.0 containing 5 mM MgCl2 b, 0.6 ml; 10μ moles NADH, and cellular fraction.
Reaction mixtures were contained in 10 ml vials at 4° C. Vials were sealed with rubber caps. The gaseous phase in the vials was removed using vacuum and then was replaced with a gas mixture of methane or propylene and oxygen at a 1:1, v/v ratio. Oxidation of other gaseous n-alkanes and n-alkanes was examined as described above. For liquid substrates, 10 μl of substrate was used directly.
The products of epoxidation of n-alkenes and hydroxylation of n-alkanes were assayed by flame ionization gas chromatography using a stainless steel column (12'×1/8") packed with 10% Carbowax 20 M on 80/100 Chromosorb W and Porapak Q column. The column temperature was maintained isothermally at 120° C. The carrier gas flow rate was 30 ml/min. of helium. The various products were identified by retention time comparisons and co-chromatography with authentic standards.
Specific activities were expressed as μ moles of products formed per hour per mg. protein. Concentrations of protein in various fractions were determined by the method of Lowry et al., J. Biol. Chem., 193: 265-275 (1951).

[6] = system: Methylomonas rosaceus (CRL M7P) NRRL B-11,213; assay: Oxidation by washed cell suspensions of methane-grown cells; format: cell-based; conditions: 30° C., methane to methanol, alkene to 1,2-epoxide
In short: as §5

[7] = system: Methylomonas rubrum (CRL M6P) NRRL B-11,210; assay: as above; format: cell-based; conditions: methane-grown washed cells, 30° C.; methane to methanol, alkene to 1,2-epoxide
In short: as §5

SMILES	Conversion Rate [1]	Conversion Rate [2]	Conversion Rate [3]	Conversion Rate to Ketone ([4]; methane-grown cells, butane to 2-butanone)	Oxidizing Activity (rate of oxidation) in cell fraction [5]	Oxidative Conversion Rates [6]	Oxidative Conversion Rates [7]	Oxidative Conversion Rates ([4]; methane-grown washed cells, 30° C., methane to methanol, alkene to 1,2-epoxide)
CCCC [Butane]	1.0 μmoles/hr/^5 mg. protein	1.5 μmoles/hr/^5 mg. protein	0.09 μmoles/hr/^5 mg. protein	1.5 μmoles/hr/mg Protein	–	–	–	–
C [Methane]	–	–	–	–	0 μ moles of products formed per	1.4 μmole/hr/mg protein	0.5 μmole/hr/mg protein	–
CCC [Propane]	1.1 μmoles/hr/^5 mg. protein	2.5 μmoles/hr/^5 mg. protein	0.20 μmoles/hr/^5 mg. protein	–	–	–	–	–
C=CC [Propylene]	–	–	–	–	0 μ moles of products formed per	2.0 μmole/hr/mg protein	1.0 μmole/hr/mg protein	2.4 μmole/hr/mg protein
